pEC50, pIC50: −log10 of the molar value.
Tests used:
[1] = test system: release of the leukotriene LTB4 from MPRO cell line; test: LTB4 assay (competitive ELISA); assay type: cell-based; settings: Mus musculus; 1 μM calcium ionophore A23187, 1 hour; read-out: EC50, inhibition of LTB4 production
Excerpt: This procedure was used for measuring the release of the leukotriene LTB4 from a neutrophil cell line using a competitive ELISA technique.
• MPRO cell line (ATCC, Catalog #CRL-11422) • Calciumionophore (A23187) (Sigma, Catalog #C7522) • Nordihydroguaiaretic acid (NDGA) (BioMol, Catalog #E1101-0001) • Retinoic Acid (all-trans) (ATRA) (Sigma, Catalog #95152) • Sterile, tissue-culture treated 96-well plates (Corning, Catalog #3614) Materials for LTB4 ELISA • Precoated (Mouse Anti-Rabbit IgG) EIA 96 Well Strip Plates (Cayman, Catalog #400004) • Leukotriene B4 AChE Tracer (Cayman Catalog #420110) • Leukotriene B4 EIA Antiserum (Cayman Catalog #420112) • Ellman's Reagent (Cayman Catalog #400050) • EIA Buffer Concentrate (10×) (Cayman Catalog #400060) • Wash Buffer Concentrate (400×) (Cayman Catalog #400062) • Plastic plate covers (Cayman Catalog #400012) Procedure
A mouse promyelocytic cell line (MPRO) was used in this assay. These cells are committed immature neutrophils that can be differentiated into mature neutrophils by treatment with 10 μM all-trans retinoic acid for 72 hours
Following 72 hours of differentiation, cells were stimulated with 1 μM of a calcium ionophore (A23187) in the presence or absence of test compound or vehicle for 1 hour at 370 C. After this time, supernatant was removed from the cells and the LTB4 levels were determined following manufacturer's instructions, using a Leukotriene B4 EIA kit from Cayman (Cat #520111)
The negative controls were media samples from differentiated but unstimulated cells.
The compounds were screened at 5 concentrations in quadruplicate starting at 10 μM

[2] = molecular target: T1, porcine leukocyte 12/15-lipoxygenase (Sus scrofa, UniProt P16469); test: 12/15-Lipoxygenase enzyme assay; assay type: biochemical; settings: 70 μM arachidonic acid, pH 7.4, 10 minute incubation; read-out: IC50, inhibition of 12/15-Lipoxygenase
T1 construct: purchased Cayman 60300
T1 sequence (P16469 1-663): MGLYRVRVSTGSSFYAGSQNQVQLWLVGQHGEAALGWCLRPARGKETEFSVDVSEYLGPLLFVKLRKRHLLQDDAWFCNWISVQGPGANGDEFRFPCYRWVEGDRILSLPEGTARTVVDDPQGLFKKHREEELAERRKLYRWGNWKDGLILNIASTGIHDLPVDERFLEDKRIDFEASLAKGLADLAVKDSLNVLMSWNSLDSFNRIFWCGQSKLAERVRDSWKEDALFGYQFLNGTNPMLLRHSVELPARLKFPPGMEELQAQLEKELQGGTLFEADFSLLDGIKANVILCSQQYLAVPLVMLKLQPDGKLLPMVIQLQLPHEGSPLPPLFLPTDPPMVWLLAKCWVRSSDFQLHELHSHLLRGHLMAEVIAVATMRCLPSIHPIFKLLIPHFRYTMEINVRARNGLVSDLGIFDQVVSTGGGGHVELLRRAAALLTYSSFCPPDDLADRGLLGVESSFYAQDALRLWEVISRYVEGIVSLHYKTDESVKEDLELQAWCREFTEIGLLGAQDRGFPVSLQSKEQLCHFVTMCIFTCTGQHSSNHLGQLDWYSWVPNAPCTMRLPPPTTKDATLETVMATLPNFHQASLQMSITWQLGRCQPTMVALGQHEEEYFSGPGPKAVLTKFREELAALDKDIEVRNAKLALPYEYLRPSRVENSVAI
Excerpt: In vitro evaluation of the ability of a composition to inhibit the enzymes 5-lipoxygenase, 15-lipoxygenase, or 12/15 lipoxygenase as described in Walidge, N. B. et al Anal. Biochem., 231: 354-358 (1995) using a high throughput colorimetric method; as well as in vitro evaluation of inhibiting LTB4 is described in Examples.
This procedure was used for measuring the enzymatic activity of porcine leukocyte 12/15-lipoxygenase using a colorimetric method based on the ferric oxidation of xylenol orange.
• 96 well flat bottom microfilter plates (VWR, Catalog #62402-933 9295) • Lipoxygenase screening assay buffer (Cayman, Catalog #760710) • Porcine leukocyte 12/15-lipoxygenase (Cayman, Catalog #60300) • Arachidonic Acid (Sigma, Catalog #A3555) • Xylenol orange tetrasodium salt (Aldrich, Catalog #227854) • Iron (II) sulfate heptahydrate (Sigma, Catalog #F7002) • Sulfuric acid (95-98%) [18M] • Methanol Procedure
Porcine Leukocyte 12/15-lipoxygenase (Cayman Cat #60300) was used in this assay. Test compound and/or vehicle was added to 1.3 U 12/15-lipoxygenase in 50 mM Tris-HCl buffer, pH 7.4. The reaction was initiated by addition of 70 μM arachidonic acid in Tris-HCl buffer, pH 7.4, and terminated after a 10 minute incubation at room temperature by addition of FOX reagent (25 mM sulphuric acid, 100 μM xylenol orange, 100 μM iron (II) sulphate, methanol:water 9:1). The yellow color of acidified xylenol orange was converted to a blue color by the lipid hydroperoxide-mediated oxidation of Fe 2+ ions and the interaction of the resulting Fe 3+ ions with the dye. The complex was allowed to form during a 1 hour incubation at room temperature with shaking. Absorbance of the Fe 3+ complex was then measured at […] using a spectrophotometer.
Negative controls contained enzyme during the incubation step but substrate was not added until after the FOX reagent.
Compounds are screened at 5 concentrations in triplicate starting at 10 μM

| Compound | pEC50 [1] | pIC50 [2] |
| --- | --- | --- |
| C=CCSCc1c(O)c(C)c(C)c2c1CCC(C)(C)O2 [5-Allylsulfanylmethyl-2,2,7,8-tetramethyl-chroman-6-ol] | > 6.00 | > 6.00 |
| COC(=O)c1ccc(-c2c(O)c(C)c(C)c3c2CCC(C)(C)O3)cc1 [4-(6-Hydroxy-2,2,7,8-tetramethyl-chroman-5-yl)-benzoic acid methyl ester] | > 6.00 | > 6.00 |
| Cc1c(C)c2c(c(C)c1O)CCC(C)(C=C(Br)Br)O2 (stereo not drawn) [2-(2,2-Dibromo-vinyl)-2,5,7,8-tetramethyl-chroman-6-ol] | > 6.00 | > 6.00 |
